# Data published in US8680052B1, “Methods of treating, reducing the incidence of, and/or preventing ischemic events” (The Medicines Company, priority 2013, dated 2014).
# What was measured:
# [1] = test system: vasodilator-stimulated phosphoprotein (VASP); assay: Example 4: vasodilator-stimulated phosphoprotein (VASP) index; type: in vivo, human
# Experimental: (§1) The study involved 12 patients who met the criteria of being 18-75 years of age, having coronary artery disease (CAD) documented by a previous MI or coronary revascularization, and taking 81 mg of aspirin daily. […] Prohibited concomitant medications included strong and potent CYP3A inhibitors, simvastatin and lovastatin at doses more than 40 mg/day, omeprazole or esomeprazole, and digoxin. Use of non-steroidal anti-inflammatory agents was discouraged during study participation but not prohibited.
# (§2) Each patient was administered a 30 μg/kg bolus of cangrelor followed immediately by a 2 hr infusion at a rate of 4.0 μg/kg/min. A loading dose of ticagrelor (180 mg) was given after 0.5 hr or 1.25 hr (n=6 for each). Blood for pharmacodynamic platelet function studies was taken after 0.5 or 1.25 hr (corresponding to the time of ticagrelor load, n=6 for each), and then at 1.75, 2, 2.25, 2.5, 2.75, 3, 4, and 5.25 hr. Patients were assigned randomly to receive either 6 (n=6) or 7 (n=6) doses of ticagrelor to be taken every 12 hours following the discontinuation of the infusion of cangrelor. On study day 5, each patient was administered a 30 μg/kg bolus of cangrelor followed immediately by a 2 hr infusion at a rate of 4.0 μg/kg/min. Blood for pharmacodynamic assessment was taken after 1 and 2 hr. Adverse events were queried throughout study participation that ended with a telephone interview performed on study day 10-12.
# (§3) Pharmacodynamic assessment included light transmission aggregometry (LTA), VerifyNow® P2Y12 assay, vasodilator-stimulated phosphoprotein (VASP) index, and platelet activation measured with the use of flow cytometry. Assessment of LTA, VerifyNow®, and platelet activation with the use of flow cytometry was performed within 30 min of blood being taken. In the case of flow cytometry, samples were processed to fixation and then batched for analysis. For VASP, index samples were batched and processed as recommended by the vendor within 2 h of blood being taken. This approach limited the time from fixation of VASP index to flow analysis to less than 1 h.
# (§4) LTA induced by 5 μM and 20 μM adenosine diphosphate (ADP) was quantified ex vivo (i.e. in non-adjusted platelet rich plasma). Platelet-poor plasma was set as 100% aggregation, and both maximal (peak) and terminal (at 300 s) aggregation were measured with a PAP4 aggregometer (BioData, Horsham, Pa.). VerifyNow® P2Y12 assay (Accumetrics Inc, San Diego, Calif.) that measures the effects of drugs on the P2Y12 receptor by activating platelets with prostaglandin El in addition to ADP was used in accordance with the instructions provided by the manufacturer. Platelet reactivity was expressed in P2Y12 reaction units (PRU). Activation of platelets was identified with the use of flow cytometry as previously described.^17. And to determine the VASP index, a commercially available kit (Diagnostica Stago, Inc, Parsippany NJ) was used. ^17 Schneider D J, Sobel B E. Streamlining the design of promising clinical trials: in-vitro testing of antithrombotic regimens and multiple agonists of platelet activation. Coron Artery Dis. 2009; 20:175-8.
# platelets = assay: Example 4: platelet activation measured by flow cytometry; type: in vivo, human; details: P-selectin expression, 1 μM ADP
# Experimental: as §1, §2, §3, §4
# [2] = Study Day 1, 1.75 h, Ticagrelor at 0.5 hr
# [3] = Study Day 1, 1.75 h, Ticagrelor at 1.25 hr
# [4] = Study Day 1, 2.0 h, Ticagrelor at 0.5 hr
# [5] = Study Day 1, 2.0 h, Ticagrelor at 1.25 hr
# [6] = Study Day 1, reference 0.5/1.25 h, All
# [7] = Study Day 1, reference 0.5/1.25 h, Ticagrelor at 0.5 hr
# [8] = Study Day 1, reference 0.5/1.25 h, Ticagrelor at 1.25 hr
# [9] = Study Day 5, 1.0 h, Ticagrelor 6 doses
# [10] = Study Day 5, 1.0 h, Ticagrelor 7 doses
# [11] = Study Day 5, 2.0 h, Ticagrelor 6 doses
# [12] = Study Day 5, 2.0 h, Ticagrelor 7 doses
# [13] = reference 5.25 h, Ticagrelor at 0.5 h
# [14] = reference 5.25 h, Ticagrelor at 1.25 h
compound,measurement,setting,value
"CSCCNc1nc(SCCC(F)(F)F)nc2c1ncn2[C@@H]1O[C@H](COP(=O)(O)OP(=O)(O)C(Cl)(Cl)P(=O)(O)O)[C@@H](O)[C@H]1O [Cangrelor, cangrelor]",VASP Index VI,"[1]; Study Day 1, 1.75 h, All",13 ± 9
same,VASP Index VI,[1]; [2],13 ± 9
same,VASP Index VI,[1]; [3],13 ± 4
same,VASP Index VI,"[1]; Study Day 1, 2.0 h, All",15 ± 9
same,VASP Index VI,[1]; [4],11 ± 7
same,VASP Index VI,[1]; [5],19 ± 7
same,VASP Index VI,[1]; [6],18 ± 10
same,VASP Index VI,[1]; [7],18 ± 13
same,VASP Index VI,[1]; [8],19 ± 8
same,VASP Index VI,"[1]; Study Day 5, 1.0 h, All",16 ± 11
same,VASP Index VI,[1]; [9],19 ± 14
same,VASP Index VI,[1]; [10],12 ± 7
same,VASP Index VI,"[1]; Study Day 5, 2.0 h, All",17 ± 5
same,VASP Index VI,[1]; [11],20 ± 3
same,VASP Index VI,[1]; [12],14 ± 6
same,Flow Cytometry IPR,"platelets; Study Day 1, 1.75 h, All",94 ± 5
same,Flow Cytometry PR,"platelets; Study Day 1, 1.75 h, All",2.5 ± 1
same,Flow Cytometry IPR,platelets; [2],96 ± 2
same,Flow Cytometry PR,platelets; [2],2 ± 0.6
same,Flow Cytometry IPR,platelets; [3],92 ± 7
same,Flow Cytometry PR,platelets; [3],3 ± 1.1
same,Flow Cytometry IPR,"platelets; Study Day 1, 2.0 h, All",89 ± 30
same,Flow Cytometry PR,"platelets; Study Day 1, 2.0 h, All",3.8 ± 4.5
same,Flow Cytometry IPR,platelets; [4],96 ± 2
same,Flow Cytometry PR,platelets; [4],2.3 ± 0.8
same,Flow Cytometry IPR,platelets; [5],83 ± 28
same,Flow Cytometry PR,platelets; [5],5.3 ± 6.3
same,Flow Cytometry IPR,platelets; [6],94 ± 4
same,Flow Cytometry PR,platelets; [6],2.8 ± 1.2
same,Flow Cytometry IPR,platelets; [7],94 ± 5
same,Flow Cytometry PR,platelets; [7],3 ± 1.7
same,Flow Cytometry IPR,platelets; [8],94 ± 3
same,Flow Cytometry PR,platelets; [8],1.5 ± 0.5
same,Flow Cytometry IPR,"platelets; Study Day 5, 1.0 h, All",92 ± 4
same,Flow Cytometry PR,"platelets; Study Day 5, 1.0 h, All",4.1 ± 2.7
same,Flow Cytometry IPR,platelets; [9],91 ± 3
same,Flow Cytometry PR,platelets; [9],3.5 ± 1.4
same,Flow Cytometry IPR,platelets; [10],93 ± 5
same,Flow Cytometry PR,platelets; [10],4.7 ± 3.6
same,Flow Cytometry IPR,"platelets; Study Day 5, 2.0 h, All",95 ± 3
same,Flow Cytometry PR,"platelets; Study Day 5, 2.0 h, All",2.8 ± 1.3
same,Flow Cytometry IPR,platelets; [11],93 ± 3
same,Flow Cytometry PR,platelets; [11],2.7 ± 1.2
same,Flow Cytometry IPR,platelets; [12],96 ± 2
same,Flow Cytometry PR,platelets; [12],2.8 ± 1.5
CCCSc1nc(N[C@@H]2C[C@H]2c2ccc(F)c(F)c2)c2nnn([C@@H]3C[C@H](OCCO)[C@@H](O)[C@H]3O)c2n1 [ticagrelor],VASP Index VI,"[1]; 2.25 h, All",35 ± 10
same,VASP Index VI,"[1]; 2.25 h, Ticagrelor at 0.5 h",37 ± 8
same,VASP Index VI,"[1]; 2.25 h, Ticagrelor at 1.25 h",32 ± 11
same,VASP Index VI,"[1]; 2.5 h, All",48 ± 49
same,VASP Index VI,"[1]; 2.5 h, Ticagrelor at 0.5 h",41 ± 25
same,VASP Index VI,"[1]; 2.5 h, Ticagrelor at 1.25 h",54 ± 32
same,VASP Index VI,"[1]; 2.75 h, All",22 ± 16
same,VASP Index VI,"[1]; 2.75 h, Ticagrelor at 0.5 h",21 ± 13
same,VASP Index VI,"[1]; 2.75 h, Ticagrelor at 1.25 h",22 ± 20
same,VASP Index VI,"[1]; 3 h, All",25 ± 19
same,VASP Index VI,"[1]; 3 h, Ticagrelor at 0.5 h",24 ± 19
same,VASP Index VI,"[1]; 3 h, Ticagrelor at 1.25 h",26 ± 20
same,VASP Index VI,"[1]; 4 h, All",17 ± 14
same,VASP Index VI,"[1]; 4 h, Ticagrelor at 0.5 h",16 ± 14
same,VASP Index VI,"[1]; 4 h, Ticagrelor at 1.25 h",19 ± 16
same,VASP Index VI,"[1]; reference 5.25 h, All",12 ± 12
same,VASP Index VI,[1]; [13],11 ± 10
same,VASP Index VI,[1]; [14],14 ± 15
same,Flow Cytometry IPR,"platelets; 2.25 h, All",84 ± 8
same,Flow Cytometry PR,"platelets; 2.25 h, All",7.8 ± 3.7
same,Flow Cytometry IPR,"platelets; 2.25 h, Ticagrelor at 0.5 h",86 ± 8
same,Flow Cytometry PR,"platelets; 2.25 h, Ticagrelor at 0.5 h",7.5 ± 2.4
same,Flow Cytometry IPR,"platelets; 2.25 h, Ticagrelor at 1.25 h",83 ± 9
same,Flow Cytometry PR,"platelets; 2.25 h, Ticagrelor at 1.25 h",8 ± 4.9
same,Flow Cytometry IPR,"platelets; 2.5 h, All",67 ± 29
same,Flow Cytometry PR,"platelets; 2.5 h, All",14 ± 8.6
same,Flow Cytometry IPR,"platelets; 2.5 h, Ticagrelor at 0.5 h",81 ± 17
same,Flow Cytometry PR,"platelets; 2.5 h, Ticagrelor at 0.5 h",9.2 ± 5.9
same,Flow Cytometry IPR,"platelets; 2.5 h, Ticagrelor at 1.25 h",53 ± 34
same,Flow Cytometry PR,"platelets; 2.5 h, Ticagrelor at 1.25 h",19 ± 8.5
same,Flow Cytometry IPR,"platelets; 2.75 h, All",80 ± 17
same,Flow Cytometry PR,"platelets; 2.75 h, All",8.8 ± 5.6
same,Flow Cytometry IPR,"platelets; 2.75 h, Ticagrelor at 0.5 h",82 ± 13
same,Flow Cytometry PR,"platelets; 2.75 h, Ticagrelor at 0.5 h",9.3 ± 4.7
same,Flow Cytometry IPR,"platelets; 2.75 h, Ticagrelor at 1.25 h",79 ± 22
same,Flow Cytometry PR,"platelets; 2.75 h, Ticagrelor at 1.25 h",8.3 ± 6.9
same,Flow Cytometry IPR,"platelets; 3 h, All",86 ± 13
same,Flow Cytometry PR,"platelets; 3 h, All",6.5 ± 4.1
same,Flow Cytometry IPR,"platelets; 3 h, Ticagrelor at 0.5 h",87 ± 10
same,Flow Cytometry PR,"platelets; 3 h, Ticagrelor at 0.5 h",6.8 ± 2.9
same,Flow Cytometry IPR,"platelets; 3 h, Ticagrelor at 1.25 h",86 ± 16
same,Flow Cytometry PR,"platelets; 3 h, Ticagrelor at 1.25 h",6.2 ± 5.3
same,Flow Cytometry IPR,"platelets; 4 h, All",84 ± 15
same,Flow Cytometry PR,"platelets; 4 h, All",7.5 ± 6.2
same,Flow Cytometry IPR,"platelets; 4 h, Ticagrelor at 0.5 h",90 ± 4
same,Flow Cytometry PR,"platelets; 4 h, Ticagrelor at 0.5 h",5.5 ± 2.4
same,Flow Cytometry IPR,"platelets; 4 h, Ticagrelor at 1.25 h",78 ± 20
same,Flow Cytometry PR,"platelets; 4 h, Ticagrelor at 1.25 h",9.5 ± 8.2
same,Flow Cytometry IPR,"platelets; reference 5.25 h, All",91 ± 6
same,Flow Cytometry PR,"platelets; reference 5.25 h, All",5 ± 3.6
same,Flow Cytometry IPR,platelets; [13],91 ± 4
same,Flow Cytometry PR,platelets; [13],5.5 ± 3.9
same,Flow Cytometry IPR,platelets; [14],91 ± 7
same,Flow Cytometry PR,platelets; [14],4.5 ± 2
